# From PubChem BioAssay (NCI)
#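 All cell lines were grown in 96-well plates and treated with compound for 48 hours. Definition used: TGI = concentration required for complete inhibition of growth.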
# Legend:
# Experiment in all cases: NCI anticancer screen, dose series, 48 h
# [1] = tested on: OVCAR-3 ovarian
# [2] = tested on: UACC-62 melanoma
# [3] = tested on: NCI-H23 lung
# [4] = tested on: CAKI-1 renal
# [5] = tested on: SK-MEL-2 melanoma
# [6] = tested on: MDA-MB-231 breast
# [7] = tested on: EKVX NSCLC
# [8] = tested on: U251 CNS
# [9] = tested on: CCRF-CEM leukemia
# [10] = tested on: RPMI-8226 leukemia
# [11] = tested on: M14 melanoma
# [12] = tested on: SN12C renal
# [13] = tested on: HCT-116 colon
# [14] = tested on: COLO 205 colon
# [15] = tested on: KM12 colon
# [16] = tested on: MDA-N
# [17] = tested on: SR leukemia
# [18] = tested on: TK-10 renal
# [19] = tested on: HCT-15 colon
# [20] = tested on: MOLT-4 leukemia
# [21] = tested on: LOX IMVI melanoma
# [22] = tested on: RXF 393 renal
# [23] = tested on: T-47D breast
# [24] = tested on: MDA-MB-435
# [25] = tested on: A498 renal
# [26] = tested on: SF-539 CNS
# [27] = tested on: PC-3 prostate
# [28] = tested on: OVCAR-5 ovarian
# [29] = tested on: HT29 colon
# [30] = tested on: DU-145 prostate
# [31] = tested on: SNB-19 CNS
# [32] = tested on: HCC-2998 colon
# [33] = tested on: HS 578T breast
# [34] = tested on: SF-295 CNS
# [35] = tested on: K-562 leukemia
# [36] = tested on: HOP-92 NSCLC
# [37] = tested on: A549 NSCLC
# [38] = tested on: NCI-H522 lung
# [39] = tested on: SF-268 CNS
# [40] = tested on: NCI-H460 lung
# [41] = tested on: UACC-257 melanoma
# [42] = tested on: 786-0 renal
# [43] = tested on: MCF7 breast
# [44] = tested on: ACHN renal
# [45] = tested on: SW-620 colon
# [46] = tested on: SK-MEL-28 melanoma
# [47] = tested on: MALME-3M melanoma
# [48] = tested on: NCI-H226 lung
# [49] = tested on: SK-MEL-5 melanoma
# [50] = tested on: OVCAR-4 ovarian
# [51] = tested on: BT-549 breast
# [52] = tested on: UO-31 renal
# [53] = tested on: SK-OV-3 ovarian
# [54] = tested on: HOP-62 NSCLC
# [55] = tested on: HL-60(TB) leukemia
# [56] = tested on: SNB-75 CNS
# [57] = tested on: NCI/ADR-RES ovarian
# [58] = tested on: OVCAR-8 ovarian
# [59] = tested on: IGROV1 ovarian
smiles,measurement,setting,value
COc1cccc2c(NNc3ccc(Cl)cc3)c3ccc([N+](=O)[O-])cc3nc12,TGI,[1],36.3 µM
same,TGI,[2],26.3 µM
same,TGI,[3],33.4 µM
same,TGI,[4],15.2 µM
same,TGI,[5],> 100 µM
same,TGI,[6],27.5 µM
same,TGI,[7],33.3 µM
same,TGI,[8],31.2 µM
same,TGI,[9],15.6 µM
same,TGI,[10],> 100 µM
same,TGI,[11],41.6 µM
same,TGI,[12],75.3 µM
same,TGI,[13],20.3 µM
same,TGI,[14],85 µM
same,TGI,[15],> 100 µM
same,TGI,[16],> 100 µM
same,TGI,[17],4 µM
same,TGI,[18],25.8 µM
same,TGI,[19],27.3 µM
same,TGI,[20],11.5 µM
same,TGI,[21],36.1 µM
same,TGI,[22],48 µM
same,TGI,[23],61.8 µM
same,TGI,[24],> 100 µM
same,TGI,[25],33.2 µM
same,TGI,[26],33 µM
same,TGI,[27],26.1 µM
same,TGI,[28],91.9 µM
same,TGI,[29],34.8 µM
same,TGI,[30],53.5 µM
same,TGI,[31],33.2 µM
same,TGI,[32],53 µM
same,TGI,[33],50.6 µM
same,TGI,[34],36.1 µM
same,TGI,[35],97.2 µM
same,TGI,[36],27.7 µM
same,TGI,[37],28.4 µM
same,TGI,[38],21.1 µM
same,TGI,[39],28.1 µM
same,TGI,[40],17.2 µM
same,TGI,[41],55.2 µM
same,TGI,[42],21.2 µM
same,TGI,[43],> 100 µM
same,TGI,[44],22.4 µM
same,TGI,[45],> 100 µM
same,TGI,[46],> 100 µM
same,TGI,[47],22 µM
same,TGI,[48],36.8 µM
same,TGI,[49],80.4 µM
same,TGI,[50],30.9 µM
same,TGI,[51],29.8 µM
same,TGI,[52],37.9 µM
same,TGI,[53],32.5 µM
same,TGI,[54],24.2 µM
same,TGI,[55],28.8 µM
CCOC(=O)C1(C/C=C\CBr)CCCCCCC1=O (centres undefined),TGI,[2],> 100 µM
same,TGI,[3],> 100 µM
same,TGI,[4],> 100 µM
same,TGI,[5],> 100 µM
same,TGI,[6],> 100 µM
same,TGI,[7],> 100 µM
same,TGI,[8],> 100 µM
same,TGI,[9],> 100 µM
same,TGI,[56],> 100 µM
same,TGI,[11],> 100 µM
same,TGI,[12],> 100 µM
same,TGI,[13],> 100 µM
same,TGI,[57],> 100 µM
same,TGI,[58],> 100 µM
same,TGI,[14],> 100 µM
same,TGI,[15],> 100 µM
same,TGI,[16],> 100 µM
same,TGI,[18],> 100 µM
same,TGI,[19],> 100 µM
same,TGI,[20],> 100 µM
same,TGI,[21],> 100 µM
same,TGI,[22],> 100 µM
same,TGI,[23],> 100 µM
same,TGI,[24],> 100 µM
same,TGI,[25],> 100 µM
same,TGI,[26],> 100 µM
same,TGI,[59],> 100 µM
same,TGI,[27],> 100 µM
same,TGI,[28],> 100 µM
same,TGI,[29],> 100 µM
same,TGI,[30],> 100 µM
same,TGI,[31],> 100 µM
same,TGI,[33],> 100 µM
same,TGI,[34],> 100 µM
same,TGI,[37],> 100 µM
same,TGI,[38],> 100 µM
same,TGI,[39],> 100 µM
same,TGI,[41],> 100 µM
same,TGI,[42],> 100 µM
same,TGI,[43],> 100 µM
same,TGI,[44],> 100 µM
same,TGI,[45],> 100 µM
same,TGI,[46],> 100 µM
same,TGI,[47],> 100 µM
same,TGI,[48],> 100 µM
same,TGI,[49],> 100 µM
same,TGI,[50],> 100 µM
same,TGI,[51],> 100 µM
same,TGI,[52],> 100 µM
same,TGI,[53],> 100 µM
same,TGI,[54],> 100 µM
same,TGI,[55],> 100 µM
O=C1c2ccccc2C(=O)c2c1c1cc(O)ccc1n2Cc1ccc(Cl)cc1Cl,TGI,[2],21.8 µM
same,TGI,[3],19.9 µM
same,TGI,[4],14.4 µM
same,TGI,[5],33.9 µM
same,TGI,[6],17.5 µM
same,TGI,[8],12.2 µM
same,TGI,[9],18.9 µM
same,TGI,[10],26.7 µM
same,TGI,[11],46.6 µM
same,TGI,[12],16.3 µM
same,TGI,[13],73.2 µM
same,TGI,[57],11.7 µM
same,TGI,[58],19.1 µM
same,TGI,[14],29.8 µM
same,TGI,[15],> 100 µM
same,TGI,[16],38.7 µM
same,TGI,[17],> 100 µM
same,TGI,[18],27.4 µM
same,TGI,[19],23.3 µM
same,TGI,[20],43.4 µM
same,TGI,[21],11.4 µM
same,TGI,[22],9.44 µM
same,TGI,[24],27.8 µM
same,TGI,[25],38.1 µM
same,TGI,[26],14.7 µM
same,TGI,[59],21.2 µM
same,TGI,[27],3.97 µM
same,TGI,[28],5.66 µM
same,TGI,[29],51 µM
same,TGI,[30],> 100 µM
same,TGI,[31],34.7 µM
same,TGI,[33],> 100 µM
same,TGI,[34],20.1 µM
same,TGI,[35],> 100 µM
same,TGI,[37],13.3 µM
same,TGI,[39],29.7 µM
same,TGI,[40],11.8 µM
same,TGI,[41],69.9 µM
same,TGI,[42],8.09 µM
same,TGI,[43],16.5 µM
same,TGI,[45],> 100 µM
same,TGI,[46],36.1 µM
same,TGI,[47],63.9 µM
same,TGI,[48],31.1 µM
same,TGI,[49],47.4 µM
same,TGI,[50],4.27 µM
same,TGI,[51],36.9 µM
same,TGI,[52],37.9 µM
same,TGI,[53],13.8 µM
same,TGI,[54],9.88 µM
same,TGI,[55],> 100 µM
CC1=CC(=O)C[C@]2(C)[C@@H](O)CC(C(C)CO)C[C@@H]12 (some centres undefined),TGI,[1],> 100 µM
same,TGI,[2],> 100 µM
same,TGI,[3],> 100 µM
same,TGI,[4],> 100 µM
same,TGI,[5],> 100 µM
same,TGI,[6],> 100 µM
same,TGI,[7],> 100 µM
same,TGI,[8],> 100 µM
same,TGI,[56],> 100 µM
same,TGI,[11],> 100 µM
same,TGI,[12],> 100 µM
same,TGI,[13],> 100 µM
same,TGI,[57],> 100 µM
same,TGI,[58],> 100 µM
same,TGI,[14],> 100 µM
same,TGI,[15],> 100 µM
same,TGI,[16],> 100 µM
same,TGI,[18],> 100 µM
same,TGI,[19],> 100 µM
same,TGI,[20],> 100 µM
same,TGI,[21],> 100 µM
same,TGI,[22],> 100 µM
same,TGI,[23],> 100 µM
same,TGI,[24],> 100 µM
same,TGI,[25],> 100 µM
same,TGI,[26],> 100 µM
same,TGI,[59],> 100 µM
same,TGI,[28],> 100 µM
same,TGI,[29],> 100 µM
same,TGI,[30],> 100 µM
same,TGI,[31],> 100 µM
same,TGI,[32],> 100 µM
same,TGI,[34],> 100 µM
same,TGI,[36],> 100 µM
same,TGI,[37],> 100 µM
same,TGI,[39],> 100 µM
same,TGI,[40],> 100 µM
same,TGI,[41],> 100 µM
same,TGI,[42],> 100 µM
same,TGI,[43],> 100 µM
same,TGI,[44],> 100 µM
same,TGI,[45],> 100 µM
same,TGI,[46],> 100 µM
same,TGI,[48],> 100 µM
same,TGI,[49],> 100 µM
same,TGI,[50],> 100 µM
same,TGI,[51],> 100 µM
same,TGI,[52],> 100 µM
same,TGI,[53],> 100 µM
same,TGI,[54],> 100 µM
same,TGI,[55],> 100 µM
